The text below walks through data of ChEMBL document CHEMBL2021877, “Dithiocarbamates strongly inhibit carbonic anhydrases and show antiglaucoma action in vivo” (J Med Chem, 2012).

Assay [1] has as its system Oryctolagus cuniculus. In words: Antiglaucoma activity in carbomer-induced glaucoma in albino rabbit assessed as reduction in intra ocular pressure dosed as 2% compound solution measured 2 hrs post dose (vehicle treated contralateral eye Rvb = 37 to 40 mmHg). The class given is functional.
The target in another assay is Carbonic anhydrase 9 (Homo sapiens, UniProt Q16790). The assay can be described thus: Inhibition of human CA9 pre-incubated for 15 mins by stopped-flow CO2 hydration method.
The test system of assay [2] is Oryctolagus cuniculus. In words: Antiglaucoma activity in carbomer-induced glaucoma in albino rabbit assessed as reduction in intra ocular pressure dosed as 2% compound solution measured 3 to 4 hrs post dose. It is filed as functional, organism-based. The conditions noted are these: Eye.
In assay [3] the test system is Oryctolagus cuniculus. The assay can be described thus: Antiglaucoma activity in carbomer-induced glaucoma in albino rabbit assessed as reduction in intra ocular pressure dosed as 2% compound solution. The class given is functional, organism-based. The conditions noted are these: Eye, TDE = time-dependent effect.
Another assay has as its target Carbonic anhydrase 1 (Homo sapiens, UniProt P00915). The assay can be described thus: Inhibition of human CA1 pre-incubated for 15 mins by stopped-flow CO2 hydration method.
The next assay addresses Carbonic anhydrase 12 (Homo sapiens, UniProt O43570). The assay can be described thus: Inhibition of human CA12 pre-incubated for 15 mins by stopped-flow CO2 hydration method.
Another assay concerns the target Carbonic anhydrase 2 (Homo sapiens, UniProt P00918). The assay can be described thus: Inhibition of human CA2 pre-incubated for 15 mins by stopped-flow CO2 hydration method.
The subject of assay [4] is Oryctolagus cuniculus. In words: Antiglaucoma activity in carbomer-induced glaucoma in albino rabbit assessed as reduction in intra ocular pressure dosed as 2% compound solution measured 2 hrs post dose (vehicle treated contralateral eye Rvb = 37 to 39 mmHg). It is filed as functional.

SMILES strings stand for the structures. Structures can show the parent of a compound that is named as a salt. Active and inactive are the calls of the source. The calls are words filed in the database; no cut-off is given here.

Chain of Carbonic anhydrase 12 (O43570 whole entry): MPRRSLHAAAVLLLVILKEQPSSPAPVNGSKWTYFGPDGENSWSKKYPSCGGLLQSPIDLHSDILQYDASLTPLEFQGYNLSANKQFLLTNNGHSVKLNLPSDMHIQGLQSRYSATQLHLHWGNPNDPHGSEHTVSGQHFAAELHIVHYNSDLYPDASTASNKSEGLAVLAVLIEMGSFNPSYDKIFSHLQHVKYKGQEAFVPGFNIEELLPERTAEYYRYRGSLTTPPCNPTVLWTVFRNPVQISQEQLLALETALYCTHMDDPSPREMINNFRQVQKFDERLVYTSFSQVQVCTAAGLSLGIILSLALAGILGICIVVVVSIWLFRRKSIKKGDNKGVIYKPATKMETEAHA
Chain of Carbonic anhydrase 1 (P00915 whole entry): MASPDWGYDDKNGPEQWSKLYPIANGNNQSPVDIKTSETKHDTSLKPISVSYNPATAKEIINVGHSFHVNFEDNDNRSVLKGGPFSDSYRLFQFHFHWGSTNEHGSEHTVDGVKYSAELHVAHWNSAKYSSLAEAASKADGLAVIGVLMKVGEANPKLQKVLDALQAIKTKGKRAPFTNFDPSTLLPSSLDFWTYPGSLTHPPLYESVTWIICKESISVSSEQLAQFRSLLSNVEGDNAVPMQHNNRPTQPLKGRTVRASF

Regarding `S=C([S-])N1CCOCC1.[Na+]` [MORPHOLINECARBAMODITHIOATE SODIUM SALT], the Activity in the assay with Oryctolagus cuniculus [1] was 6 mmHg; in the assay with Oryctolagus cuniculus [3] it was “tde”. Besides, affinity at Carbonic anhydrase 9 was put at a Ki of 6.2 nM. Moreover, the outcome in the assay with Oryctolagus cuniculus [2] was Active.

Consider `S=C(S)NCCN1CCCCC1`, for which, at Carbonic anhydrase 9, the affinity, expressed as Ki, was 3.6 nM. With `S=C(S)NCCCn1ccnc1`, the Ki at Carbonic anhydrase 9 turned out to be 4.3 nM. The same measure, in the same setting: then `S=C(S)NCCN1CCOCC1`, with 4.5 nM; and `CCCCCCN(CCCCCC)C(=S)S` [DIHEXYLCARBAMODITHIOATE SODIUM SALT], with 27.4 nM; and `CCCCN(CC)C(=S)S` [ETHYLBUTYLCARBAMODITHIOATE SODIUM SALT], with 25.9 nM. `CCCCN(CCCC)C(=S)S` [DIBUTYLCARBAMODITHIOATE SODIUM SALT] came in with a Ki on Carbonic anhydrase 9 of 50.3 nM.

On to `S=C(S)NCc1ccccc1` [SODIUM BENZYLCARBAMODITHIOATE], for which, at Carbonic anhydrase 9, the Ki is 19.2 nM. Same read-out and setting: the same measure for `N#CC1(c2ccccc2)CCN(C(=S)S)CC1`: 757 nM. The same measure, in the same setting: the same measure for `OCCN(CCO)C(=S)S`: 4.3 nM. In the case of `CN1CCN(NC(=S)S)CC1`, the Ki at Carbonic anhydrase 9 is 22.1 nM. In turn, `CN(Cc1ccccc1)C(=S)S` [SODIUM BENZYL(METHYL)CARBAMODITHIOATE] showed a Ki on Carbonic anhydrase 9 of 53 nM. Turning to `S=C(S)N1CCCC1`, the Ki was determined as 0.96 nM at Carbonic anhydrase 1, 70.4 nM at Carbonic anhydrase 9, 46.1 nM at Carbonic anhydrase 12 and 27.5 nM on Carbonic anhydrase 2. At Carbonic anhydrase 9, `CN(C(=S)S)c1ccccc1` [SODIUM METHYL(PHENYL)CARBAMODITHIOATE] gave an inhibitory constant (Ki) of 28.2 nM.

Molecule `S=C(S)NCCN(CCNC(=S)S)CCNC(=S)S` had an inhibition constant Ki on Carbonic anhydrase 9 of 27.4 nM. `S=C(S)NCc1ccncc1` had a Ki at Carbonic anhydrase 9 of 26 nM.

`CCCN(CCC)C(=S)S` [DIPROPYLCARBAMODITHIOATE SODIUM SALT] displayed a Ki at Carbonic anhydrase 9 of 53.8 nM.

In the case of `S=C(S)Nc1nccs1`, the Ki on Carbonic anhydrase 9 came out at 12.6 nM. The same measure, in the same setting: the same measure for `O=C(O)[C@@H]1CCCN1C(=S)S`: 4.1 nM. Molecule `S=C(S)NN1CCOCC1` [POTASSIUM MORPHOLINOCARBAMODITHIOATE] yielded a Ki on Carbonic anhydrase 9 of 29.1 nM. In the case of `S=C([S-])N1CCN(C(=S)[S-])CC1.[Na+].[Na+]` [PIPERAZINECARBAMODITHIOATE DISODIUM SALT], the Activity is 6 mmHg in the assay on Oryctolagus cuniculus [4] and “tde” with Oryctolagus cuniculus [3]. On Carbonic anhydrase 9, this molecule registered a Ki of 37.5 nM. Further, the outcome in the assay with Oryctolagus cuniculus [2] was Active. Molecule `S=C(S)Nc1ccccc1` [TRIETHYLAMMONIUM PHENYLCARBAMODITHIOATE] gave a Ki on Carbonic anhydrase 9 of 4.2 nM. `CN(C)C(=S)S` [SODIUM DIMETHYLCARBAMODITHIOATE]: the Ki on Carbonic anhydrase 1 is 699 nM; on Carbonic anhydrase 9 it was 714 nM; on Carbonic anhydrase 12, 798 nM; on Carbonic anhydrase 2 it was 6910 nM.

`CC(C)CN(CC(C)C)C(=S)S` [DIISOBUTYLCARBODITHIOIC ACID SODIUM SALT] registered a Ki on Carbonic anhydrase 9 of 4.5 nM. In the case of `CCC(C)NC(=S)S` (racemic), the Ki on Carbonic anhydrase 9 turned out to be 4.6 nM.

Regarding `O=C(O)CNC(=S)S`, the Ki at Carbonic anhydrase 9 is 57.1 nM. As for `CCN(CC)C(=S)S` [DITIOCARB SODIUM], the Ki worked out at 1410 nM at Carbonic anhydrase 9 and 1100 nM at Carbonic anhydrase 12.

A word on the Ki: it is a dissociation constant, usually derived from enzyme kinetics or from competition with a known ligand. The low end stands for higher affinity, the high end for lower affinity.
